Results: article PMC12104396, “Comparative in vitro assessment of CYP2C19 inhibition by ilaprazole and conventional proton pump inhibitors using a high throughput fluorometric assay” (Scientific Reports, 2025)
“And” between values parts separate entries of the source, which are not always exact repeats. Equal entries are not always repeated.

Key:
CYP2C19 = target: T1, CYP2C19 (Homo sapiens, UniProt P33261); experiment: High-throughput fluorometric CYP2C19 inhibition assay (Vivid CYP2C19 Blue Screening Kit, EOMCC substrate, endpoint mode); type: biochemical; conditions: for Ki: approximated as IC50,u/2 (Cheng-Prusoff, S much lower than Km), read-out: Ki,u (unbound inhibition constant); for IC50: recombinant human CYP2C19 BACULOSOMES, eight concentrations, duplicate, nonlinear regression
T1 construct: purchased Thermo Scientific P2864
T1 sequence (P33261 whole entry): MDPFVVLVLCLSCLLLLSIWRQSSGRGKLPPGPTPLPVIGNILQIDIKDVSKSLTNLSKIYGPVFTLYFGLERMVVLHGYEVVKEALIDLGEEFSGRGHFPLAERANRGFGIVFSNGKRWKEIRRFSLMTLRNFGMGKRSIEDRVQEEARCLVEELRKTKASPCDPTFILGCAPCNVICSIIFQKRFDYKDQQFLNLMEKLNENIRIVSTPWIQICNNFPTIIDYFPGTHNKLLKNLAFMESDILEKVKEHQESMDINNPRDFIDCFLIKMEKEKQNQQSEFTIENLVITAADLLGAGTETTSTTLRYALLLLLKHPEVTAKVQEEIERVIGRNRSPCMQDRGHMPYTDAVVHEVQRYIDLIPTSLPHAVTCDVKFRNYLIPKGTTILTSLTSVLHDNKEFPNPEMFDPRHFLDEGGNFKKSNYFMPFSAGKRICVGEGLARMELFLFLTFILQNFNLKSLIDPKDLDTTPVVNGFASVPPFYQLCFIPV
Experimental: Vivid™ CYP2C19 Blue Screening Kit (Thermo Scientific; Cat. No. P2864).
Vivid® CYP450 2X Reaction Buffer 100 Mm, CYP2C19 BACULOSOMES® Plus Reagent 0.5 nmol (Recombinant human cytochrome P450), 0.5 mL Vivid® Regeneration System (Glucose-6-phosphate and 30U/mL Glucose-6-phosphate dehydrogenase in 100 mM Potassium phosphate), 0.5 mL Vivid® NADP + , Vivid® EOMCC Substrate 0.1 mg, Vivid® Blue Fluorescent Standard 0.1 µmol.
Test compounds: Dissolved in DMSO; diluted to 2.5X in 1X buffer.
Positive control inhibitor (Ticlopidine): Stock in DMSO; 2.5X dilution in 1X buffer.
Master Pre-Mix: P450 BACULOSOMES® (50 µL) + Vivid® Regeneration System (100 µL) in 1X buffer.
Substrate/NADP + Mixture: Reconstituted substrate (0.1 mg in 205 µL acetonitrile); added 50 µL substrate + 30 µL NADP + (100X).
A high-throughput fluorometric assay was conducted using a black 96-well microplate. Fluorescence measurements were recorded on a BioTek Synergy H1 multimode microplate reader (Agilent, US) with the appropriate excitation/emission wavelength. The assay followed the protocol provided by Life Technologies, USA. Test compounds were evaluated based on their ability to inhibit fluorescent signal production in reactions involving recombinant CYP isozymes and specific substrates. For IC50 determination, two-fold serial dilutions of the test samples were prepared, and the plates were incubated at 37 °C for 20 min. The enzymatic reaction was initiated by adding a mixture of NADP + and the appropriate substrate, followed by a 10-min incubation at 37 °C. The reaction was then stopped by adding 0.5 M Tris buffer (end-point assay). Fluorescence data was collected at eight different concentrations for both inhibitors and test compounds, with all measurements performed in duplicate.
Fluorescence data were collected after the incubation period, to calculate the percentage inhibition using the following formula: [drawing 1]
X = Fluorescence intensity of test compound (PPIs), A = Fluorescence intensity of solvent control (Fluorescence standard), B = Fluorescence intensity of the positive inhibitor (Ticlopidine).
IC50 values for CYP2C19 (the concentration required to inhibit 50% of CYP2C19 activity) inhibition were calculated using nonlinear regression analysis in GraphPad Prism 9 software.
IC₅₀,u (unbound IC₅₀) was calculated using the formula: [drawing 2] fu, inc = Fraction unbound in the incubation system (0.02, as per regulatory assumptions for highly protein-bound drugs).
The unbound inhibition constant (Ki,u) was determined using the Cheng-Prusoff equation: [drawing 3]
S = Substrate concentration used in the assay, IC₅₀,u = unbound half-maximal inhibitory concentration, Km = Michaelis constant for the substrate.
Fluorometric assay is the most commonly used method to identify the CYP inhibition of compounds in early drug discovery due to its sensitivity, speed, low cost, and ease of use. This method helps to ensure the drug interaction potential of the test compound on the important CYP isoforms such as CYP2C19. Inhibitor potency was quantified by determining IC50 values, which in turn was carried out using fixed substrate and inhibitor concentrations. Ilaprazole, Conventional PPIs, and Positive Control (Ticlopidine) were assayed between concentrations ranging from 0.8 to 6.4 μg/mL (Eight Different Concentration). All samples were assayed in duplicate as per the experimental condition (Table 1), the endpoint mode was selected to analyze the percentage inhibition, and IC50 values were calculated.

[1] = Unbound peak plasma concentration (Cmax,u) from literature Cmax; type: in vivo; conditions: unbound peak plasma concentration = literature Cmax x fu 0.01; highest recommended doses
Text: The Cmax values for Pantoprazole, Rabeprazole, Lansoprazole, and Omeprazole were obtained from reliable sources, primarily the highest recommended doses listed in the FDA drug labels[15]–[19]. However, for Ilaprazole, as no literature data was available, its Cmax was obtained from available pharmacokinetic studies [drawing 4]
Cmax,u = unbound peak plasma concentration, Cmax = Maximum plasma concentration (from literature), fu = fraction unbound in plasma (0.01 as per the guidance for high protein-bound drugs).

Ki (CYP2C19) | IC50 (CYP2C19) | Cmax,u [1] | Structure (SMILES)
161 µM | 6.43 ± 1.09 µM | 0.0062 µg/mL and 0.0173 µM | COCCCOc1ccnc(C[S+]([O-])c2nc3ccccc3[nH]2)c1C (stereo not drawn) [Rabeprazole]
88 µM | 3.52 ± 1.47 µM | 0.025 µg/mL and 0.0652 µM | COc1ccnc(C[S+]([O-])c2nc3ccc(OC(F)F)cc3[nH]2)c1OC (stereo not drawn) [Pantoprazole]
41.3 µM | 1.65 ± 1.37 µM | 0.0115 µg/mL and 0.0311 µM | Cc1c(OCC(F)(F)F)ccnc1C[S+]([O-])c1nc2ccccc2[nH]1 (stereo not drawn) [Lansoprazole]
166 µM | 6.62 ± 1.34 µM | 0.0045 µg/mL and 0.0123 µM | COc1ccnc(C[S+]([O-])c2nc3cc(-n4cccc4)ccc3[nH]2)c1C (stereo not drawn) [Ilaprazole]
35.2 µM | 1.41 ± 0.96 µM | 0.0112 µg/mL and 0.0324 µM | COc1ccc2[nH]c([S+]([O-])Cc3ncc(C)c(OC)c3C)nc2c1 (stereo not drawn) [Omeprazole]
